Data set [1] addresses T1, human H4 receptor (Homo sapiens, UniProt Q9H3N8). Kind of data set: biochemical.
Data set [2] has as its target T1, human H4 receptor. Kind of data set: biochemical. This is another data set of the same source.

Usually IC50 stands for the midpoint of a concentration-inhibition curve. In general, Ki refers to the equilibrium dissociation constant of an inhibitor or competing ligand from its target. In general, melting point refers to the temperature, or range, at which the solid turns liquid.

The structures appear in SMILES notation.
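Wherever IC50 is given: membranes from SH-SY5Y cells with stable human H4 receptor expression, incubated with GDP 10 µM, radioactivity retained on filters counted by liquid scintillation.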
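Wherever Ki is given: radioligand displacement of a [3H]-labelled ligand from membranes of CHO cells stably expressing human H4 receptor, bound radioactivity counted on filters by liquid scintillation.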

T1 sequence (Q9H3N8 whole entry): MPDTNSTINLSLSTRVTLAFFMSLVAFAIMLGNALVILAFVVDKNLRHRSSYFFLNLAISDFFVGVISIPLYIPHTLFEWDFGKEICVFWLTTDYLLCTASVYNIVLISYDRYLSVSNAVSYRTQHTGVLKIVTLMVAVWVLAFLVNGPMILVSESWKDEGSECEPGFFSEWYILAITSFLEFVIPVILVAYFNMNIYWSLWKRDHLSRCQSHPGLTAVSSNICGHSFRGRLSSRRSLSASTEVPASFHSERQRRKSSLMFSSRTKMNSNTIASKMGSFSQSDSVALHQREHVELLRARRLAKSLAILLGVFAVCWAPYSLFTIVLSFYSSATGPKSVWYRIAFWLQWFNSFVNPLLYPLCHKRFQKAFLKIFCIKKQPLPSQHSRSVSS

Take `CN1CCC(OC2c3ccccc3CCn3cc(-c4ccccc4)nc32)CC1` (stereo not drawn) [Example 4, 4-(1-methylpiperidin-4-yloxy)-2-phenyl-9,10-dihydro-4H-3,10a-diaza-benzo[f]azulene]: the melting point came out at 113 °C. The IC50 at human H4 receptor [1] was less than 300 nM. On human H4 receptor [2], the Ki is less than 300 nM.

Turning to `CN1CCC(OC2c3ccccc3CCn3cc(-c4ccc(Br)cc4)nc32)CC1` (stereo not drawn) [Example 81, 2-(4-bromophenyl)-4-(1-methylpiperidin-4-yloxy)-9,10-dihydro-4H-3,10a-diaza-benzo[f]azulene], the melting point was found to be 142 °C. The IC50 against human H4 receptor [1] is less than 30 nM. In addition, the inhibition constant Ki at human H4 receptor [2] was less than 30 nM.

`CN1CCC(OC2c3ccccc3CCn3c2nc(-c2ccc(Br)cc2)c3Cl)CC1` (stereo not drawn) [Example 127, 2-(4-bromophenyl)-1-chloro-4-(1-methylpiperidin-4-yloxy)-9,10-dihydro-4H-3,10a-diaza-benzo[f]azulene] returned a melting point of 169 °C. The compound also returned a 50% inhibitory concentration (IC50) against human H4 receptor [1] of less than 30 nM. Further, at human H4 receptor [2], the Ki is less than 30 nM.

The compound `Cc1c(-c2ccccc2F)nc2n1CCc1ccccc1C2OC1CCN(C)CC1` (stereo not drawn) [Example 142, 2-(2-fluorophenyl)-1-methyl-4-(1-methylpiperidin-4-yloxy)-9,10-dihydro-4H-3,10a-diaza-benzo[f]azulene] gave a melting point of 68 °C. Moreover, the IC50 at human H4 receptor [1] is less than 30 nM. The same compound gave a Ki on human H4 receptor [2] of less than 300 nM.

Consider `Cc1c(-c2cccc(F)c2)nc2n1CCc1ccccc1C2OC1CCN(C)CC1` (stereo not drawn) [Example 143, 2-(3-fluorophenyl)-1-methyl-4-(1-methylpiperidin-4-yloxy)-9,10-dihydro-4H-3,10a-diaza-benzo[f]azulene], for which the melting point stood at 132 °C. The compound further returned an IC50 against human H4 receptor [1] of less than 30 nM. Moreover, the Ki at human H4 receptor [2] is less than 30 nM.

As for `Cc1cccc(-c2nc3n(c2C)CCc2ccccc2C3OC2CCN(C)CC2)c1` (stereo not drawn) [Example 144, 1-methyl-4-(1-methylpiperidin-4-yloxy)-2-m-tolyl-9,10-dihydro-4H-3,10a-diaza-benzo[f]azulene], the melting point was 66 °C. Also, on human H4 receptor [1], the IC50 is less than 30 nM. In addition, the Ki on human H4 receptor [2] was less than 30 nM.

Take `Cc1c(-c2cccc(Cl)c2)nc2n1CCc1ccccc1C2OC1CCN(C)CC1` (stereo not drawn) [Example 145, 2-(3-chlorophenyl)-1-methyl-4-(1-methylpiperidin-4-yloxy)-9,10-dihydro-4H-3,10a-diaza-benzo[f]azulene]: the melting point was 72 °C. The IC50 on human H4 receptor [1] is less than 30 nM. Also, the inhibition constant (Ki) at human H4 receptor [2] was less than 30 nM.

Regarding `Cc1c(-c2ccccc2Cl)nc2n1CCc1ccccc1C2OC1CCN(C)CC1` (stereo not drawn) [Example 146, 2-(2-chlorophenyl)-1-methyl-4-(1-methylpiperidin-4-yloxy)-9,10-dihydro-4H-3,10a-diaza-benzo[f]azulene], the melting point is 78 °C. The IC50 against human H4 receptor [1] was less than 30 nM. In addition, on human H4 receptor [2], the Ki was less than 30 nM.

Compound `Cc1ccccc1-c1nc2n(c1C)CCc1ccccc1C2OC1CCN(C)CC1` (stereo not drawn) [Example 147, 1-methyl-4-(1-methylpiperidin-4-yloxy)-2-o-tolyl-9,10-dihydro-4H-3,10a-diaza-benzo[f]azulene] displayed a melting point of 74 °C. In addition, the IC50 against human H4 receptor [1] is less than 30 nM. Moreover, at human H4 receptor [2], the Ki is less than 30 nM.

`COc1cccc(-c2nc3n(c2C)CCc2ccccc2C3OC2CCN(C)CC2)c1` (stereo not drawn) [Example 150, 2-(3-methoxyphenyl)-1-methyl-4-(1-methypiperidin-4-yloxy)-9,10-dihydro-4H-3,10a-diaza-benzo[f]azulene] came in with a melting point of 138 °C. The compound further yielded an IC50 against human H4 receptor [1] of less than 30 nM. At human H4 receptor [2], this compound yielded an inhibition constant (Ki) of less than 30 nM.

In turn, `Cc1c(-c2ccc(C=CC(=O)OC(C)(C)C)cc2)nc2n1CCc1ccccc1C2OC1CCN(C)CC1` (stereo not drawn) [Example 151, 3-{4-[1-methyl-4-(1-methylpiperidin-4-yloxy)-9,10-dihydro-4H-3,10a-diaza-benzo[f]azulen-2-yl]-phenyl}-acrylic acid tert-butyl ester] registered a melting point of 185 °C. For the same compound, the IC50 at human H4 receptor [1] is less than 30 nM. The compound further gave a Ki on human H4 receptor [2] of less than 30 nM.

With `Cc1ccc(-c2nc3n(c2C)CCc2ccccc2C3OC2CCN(C)CC2)cc1` (stereo not drawn) [Example 153, 1-methyl-4-(1-methylpiperidin-4-yloxy)-2-p-tolyl-9,10-dihydro-4H-3,10a-diaza-benzo[f]azulene], the melting point worked out at 181 °C. This compound also came in with a half-inhibitory concentration (IC50) at human H4 receptor [1] of less than 30 nM. The same compound showed a Ki at human H4 receptor [2] of less than 30 nM.

Regarding `COc1ccc(-c2nc3n(c2C)CCc2ccccc2C3OC2CCN(C)CC2)cc1` (stereo not drawn) [Example 156, 2-(4-methoxyphenyl)-1-methyl-4-(1-methylpiperidin-4-yloxy)-9,10-dihydro-4H-3,10a-diaza-benzo[f]azulene], the melting point came to 164 °C. Further, the IC50 against human H4 receptor [1] was less than 30 nM. In addition, the Ki on human H4 receptor [2] was less than 30 nM.

In turn, `Cc1ccccc1-c1cccc2c1CCn1cc(-c3ccccc3)nc1C2OC1CCN(C)CC1` (stereo not drawn) [Example 239, 4-(1-methylpiperidin-4-yloxy)-2-phenyl-8-o-tolyl-9,10-dihydro-4H-3,10a-diaza-benzo[f]azulene] registered a melting point of 94 °C. This compound also yielded a Ki on human H4 receptor [2] of less than 1000 nM.

In turn, `CN1CCC(OC2c3cccc(-c4ccc(F)cc4)c3CCn3cc(-c4ccccc4)nc32)CC1` (stereo not drawn) [Example 240, 8-(4-fluorophenyl)-4-(1-methylpiperidin-4-yloxy)-2-phenyl-9,10-dihydro-4H-3,10a-diaza-benzo[f]azulene] gave a melting point of 95 °C. The same compound registered a Ki on human H4 receptor [2] of less than 300 nM.

`COc1cccc(-c2cccc3c2CCn2cc(-c4ccccc4)nc2C3OC2CCN(C)CC2)c1` (stereo not drawn) [Example 241, 8-(3-methoxyphenyl)-4-(1-methylpiperidin-4-yloxy)-2-phenyl-9,10-dihydro-4H-3,10a-diaza-benzo[f]azulene] came in with a melting point of 93 °C. The Ki at human H4 receptor [2] was less than 300 nM.

`CN1CCC(OC2c3cccc(-c4cccc(N)c4)c3CCn3cc(-c4ccccc4)nc32)CC1` (stereo not drawn) [Example 242, 3-[4-(1-methylpiperidin-4-yloxy)-2-phenyl-9,10-dihydro-4H-3,10a-diaza-benzo[f]azulen-8-yl]-phenylamine] displayed a melting point of 120 °C. At human H4 receptor [2], this compound came in with a Ki of less than 1000 nM.

`CC(C)c1c(-c2ccccc2)nc2n1CCc1ccccc1C2OC1CCN(C)CC1.O=C(O)C(=O)O.O=C(O)C(=O)O` (stereo not drawn) [Example 243, 1-isopropyl-4-(1-methylpiperidin-4-yloxy)-2-phenyl-9,10-dihydro-4H-3,10a-diaza-benzo[f]azulene dioxalate] had a melting point of 90 °C. The Ki on human H4 receptor [2] is less than 300 nM.

Compound `CNc1cccc2c1CCn1cc(-c3ccccc3)nc1C2OC1CCN(C)CC1` (stereo not drawn) [Example 244, methyl-[4-(1-methylpiperidin-4-yloxy)-2-phenyl-9,10-dihydro-4H-3,10a-diaza-benzo[f]azulen-8-yl]-amine] displayed a melting point of 189 °C. Moreover, the Ki on human H4 receptor [2] is less than 1000 nM.

`COc1cccc2c1CCn1cc(-c3ccccc3)nc1C2OC1CCN(C)CC1` (stereo not drawn) [Example 245, 8-methoxy-4-(1-methylpiperidin-4-yloxy)-2-phenyl-9,10-dihydro-4H-3,10a-diaza-benzo[f]azulene] displayed a melting point of 73 °C. Also, the inhibitory constant (Ki) on human H4 receptor [2] is less than 1000 nM.

On to `CN1CCC(OC2c3ccccc3CCn3c2nc(-c2ccccc2)c3I)CC1` (stereo not drawn) [Example 247, 1-iodo-4-(1-methylpiperidin-4-yloxy)-2-phenyl-9,10-dihydro-4H-3,10a-diaza-benzo[f]azulene], for which the melting point was 153 °C. Also, on human H4 receptor [2], the Ki was less than 30 nM.

`CN1CCC(OC2c3cccc(OCc4ccccc4)c3CCn3cc(-c4ccccc4)nc32)CC1` (stereo not drawn) [Example 248, 8-benzyloxy-4-(1-methylpiperidin-4-yloxy)-2-phenyl-9,10-dihydro-4H-3,10a-diaza-benzo[f]azulene]: the melting point was determined as 68 °C. The compound further yielded a Ki on human H4 receptor [2] of less than 1000 nM.

In the case of `CN1CCC(OC2c3cccc(CCc4ccccc4)c3CCn3cc(-c4ccccc4)nc32)CC1` (stereo not drawn) [Example 249, 4-(1-methyl-piperidin-4-yloxy)-8-phenethyl-2-phenyl-9,10-dihydro-4H-3,10a-diaza-benzo[f]azulene], the melting point worked out at 67 °C. The compound also yielded a Ki at human H4 receptor [2] of less than 1000 nM.

Compound `CN1CCC(OC2c3ccccc3CCn3c2nc(-c2ccccc2)c3-c2ccccc2)CC1` (stereo not drawn) [Example 252, 4-(1-methylpiperidin-4-yloxy)-1,2-diphenyl-9,10-dihydro-4H-3,10a-diaza-benzo[f]azulene] gave a melting point of 90 °C. For the same compound, the Ki at human H4 receptor [2] was less than 300 nM.

In the case of `CN1CCC(OC2c3ccccc3CCn3c2nc(I)c3C(N)=O)CC1` (stereo not drawn) [Example 253, 2-iodo-4-(1-methylpiperidin-4-yloxy)-9,10-dihydro-4H-3,10a-diaza-benzo[f]azulene-1-carboxylic acid amide], the melting point is 85 °C. This compound came in with a Ki at human H4 receptor [2] of less than 1000 nM.

Regarding `CN1CCC(OC2c3ccccc3CCn3c2nc(-c2ccccc2)c3CO)CC1` (stereo not drawn) [Example 257, [4-(1-methylpiperidin-4-yloxy)-2-phenyl-9,10-dihydro-4H-3,10a-diaza-benzo[f]azulen-1-yl]-methanol], the melting point came out at 120 °C. At human H4 receptor [1], this compound came in with an IC50 of less than 300 nM. The compound also came in with a Ki at human H4 receptor [2] of less than 300 nM.

`CN1CCC(OC2c3ccc(Br)cc3CCn3cc(-c4ccccc4)nc32)CC1` (stereo not drawn) [Example 261, 7-bromo-4-(1-methylpiperidin-4-yloxy)-2-phenyl-9,10-dihydro-4H-3,10a-diaza-benzo[f]azulene] showed a melting point of 92 °C. The inhibition constant (Ki) at human H4 receptor [2] was less than 300 nM.

`CN1CCC(OC2c3ccccc3CCn3c2nc(-c2ccccc2)c3C=O)CC1` (stereo not drawn) [Example 262, 4-(1-methylpiperidin-4-yloxy)-2-phenyl-9,10-dihydro-4H-3,10a-diaza-benzo[f]azulene-1-carbaldehyde] came in with a melting point of 70 °C. For the same compound, the Ki on human H4 receptor [2] is less than 300 nM.

For `C=C(C)Cc1nc2n(c1CC(=C)C)CCc1ccccc1C2OC1CCN(C)CC1.O=C(O)C(=O)O.O=C(O)C(=O)O` (stereo not drawn) [Example 267, 1,2-bis-(2-methylallyl)-4-(1-methylpiperidin-4-yloxy)-9,10-dihydro-4H-3,10a-diaza-benzo[f]azulene dioxalate], the melting point was 70 °C. This compound displayed a Ki on human H4 receptor [2] of less than 300 nM.

The record behind these values is US9255101B2 (BIOPROJECT, priority 2012, dated 2016).
